Patent publication US6337410B2, “Antibiotic TKR459, production method, and microorganism” (Takara Shuzo Co., Ltd., priority 1996, dated 2002)
Converted amounts (≈) assume the structure as drawn. Where two headings read alike, the source gives them in different places.

What was measured:
[1] = test system: Candida albicans TIMM0136; assay: Antimicrobial spectrum, liquid medium dilution method; format: cell-based
Procedure: (§1) The TKR459 obtained was used to determine antimicrobial spectra against various microorganisms. The minimal inhibitory concentration (μg/ml) was measured by the liquid medium dilution method as the minimal concentration causing a substantially complete inhibition of micobial growth. The sub-minimal inhibitory concentration (μg/ml) was determined as the minimal concentration causing a partial inhibition of micobial growth and shown in the parentheses of Table 2. In the table, YNBG stands for a medium comprising 0.67% of yeast nitrogen base (manufactured by Difco) and 1.0% of glucose.

Candida kefyr TIMM0301 = assay: as above; format: cell-based; details: for MIC: Kluyveromyces marxianus, Candida kefyr TIMM0301, YNBG medium
Procedure: as §1

[2] = test system: Cryptococcus neoformans TIMM0354; assay: as above; format: cell-based
Procedure: as §1

ICR mice = assay: Toxicity after intraperitoneal administration to ICR mice; format: in vivo; details: 100 mg/kg
Solubility in solvents = format: physicochemical

SMILES: CC(O)(CCCCCCCCCCCCCC1OC(O)C(N)C(O)C1O)CCC(=O)O (stereo not drawn) [TKR459]
- MIC ([1]; Candida albicans TIMM0136, YNBG medium, substantially complete inhibition of growth, read-out: Minimal inhibitory concentration): 0.78 µg/mL (≈ 1.74 µM)
- Antifungal activity ([1]; Candida albicans, summary of Table 2): active
- Antifungal activity (Candida kefyr TIMM0301; Candida kefyr, summary of Table 2): active
- MIC (Candida kefyr TIMM0301; minimal concentration causing partial inhibition of growth, read-out: Sub-minimal inhibitory concentration (in parentheses)): 0.39 µg/mL (≈ 0.871 µM)
- MIC (Candida kefyr TIMM0301; substantially complete inhibition of growth, read-out: Minimal inhibitory concentration): 0.78 µg/mL (≈ 1.74 µM)
- MIC ([2]; Cryptococcus neoformans TIMM0354, YNBG medium, substantially complete inhibition of growth, read-out: Minimal inhibitory concentration): 3.13 µg/mL (≈ 6.99 µM)
- Antifungal activity ([2]; Cryptococcus neoformans, summary of Table 2): active
- Toxic signs (ICR mice): no toxic signs
- Solubility in chloroform (Solubility in solvents; chloroform): sparingly soluble
- Solubility in hexane (Solubility in solvents; hexane): sparingly soluble
- Solubility in methanol (Solubility in solvents; methanol): soluble
- Solubility in water (Solubility in solvents; water): soluble
